Columns and labels:
[1] = system: KRAS G12D mutation cancer cell lines; assay: Growth inhibition of KRAS G12D cancer cell lines; assay type: cell-based
Method: Cells were seeded into 96-well white flat bottom plates (1,000 cells/well) (Corning) and incubated overnight. Cells were treated with the indicated compounds in a nine-point threefold dilution series (100 μL final volume) and incubated for 72 h. Cell viability was assessed using a commercial CellTiter-Glo (CTG) luminescence-based assay (Promega). Briefly, the 96-well plates were equilibrated to room temperature before the addition of diluted CTG reagent […] (1:4 CTG reagent:PBS). Plates were placed on an orbital shaker for 30 min before recording luminescence using a Spark 20M (Tecan) plate reader.

[2] = target: T1, K-Ras G12D (Homo sapiens, UniProt P01116, G12D); assay: Covalent modification of recombinant K-Ras(G12D) by whole-protein mass spectrometry; assay type: binding; settings: 10 μM, 23° C.
T1 construct: human K-Ras (G12D, aa 1-169); 6xHis tag + TEV cleavage site (N, cleaved yes); made in house; host or cells: E. coli BL21(DE3)
Method: (§1) Test compounds were prepared as 100× stock solutions in DMSO. K-Ras proteins were diluted with SEC Buffer (20 mM HEPES 7.5, 150 mM NaCl, 1 mM MgCl2) to 400 nM or 1 μM. In a typical reaction, 0.5 μL 100× compound stock was mixed with 50 μL diluted K-Ras protein, and the resulting mixture was incubated for the desired amount of time. The extent of modification was assessed by electrospray mass spectrometry using a Waters Xevo G2-XS system equipped with an Acquity UPLC BEH C4 1.7 μm column. The mobile phase was a linear gradient of 5-95% acetonitrile/water+0.05% formic acid. For kinetic measurements, a 2× compound solution was first prepared in SEC Buffer, which was then mixed with 400 nM K-Ras(G12D) protein at 1:1 (v/v) ratio. Injection time stamps were used to calculate elapsed time.

[3] = target: T2, interaction between Raf-RBD and K-Ras(G12D) (Homo sapiens, UniProt P01116, G12D); assay: Time-resolved fluorescence energy transfer assay, Raf-RBD and K-Ras(G12D); assay type: biochemical; settings: dose-dependent
T2 construct: human K-Ras (G12D, aa 1-169); 6xHis tag + TEV cleavage site (N); made in house; host or cells: E. coli BL21(DE3) for K-Ras

[4] = target: T1, K-Ras G12D; assay: Differential scanning fluorimetry of K-Ras(G12D) and its covalent adducts; assay type: binding
Method: The protein of interest was diluted with SEC Buffer [20 mM HEPES 7.5, 150 mM NaCl, 1 mM MgCl2] to 8 μM. This solution was dispensed into wells of a white 96-well PCR plate in triplicate (25 μL/well). Fluorescence was measured at 0.5-° C. temperature intervals every 30 s from 25° C. to 95° C. on a Bio-Rad CFX96 qPCR system using the FRET setting. Each data set was normalized to the highest fluorescence and the normalized fluorescence reading was plotted against temperature in GraphPad Prism 8.0. Tm values were determined as the temperature(s) corresponding to the maximum(ma) of the first derivative of the curve.

[5] = target: T3, interaction between Raf-RBD and wildtype K-Ras (Homo sapiens, UniProt P01116); assay: Time-resolved fluorescence energy transfer assay, Raf-RBD and wildtype K-Ras; assay type: biochemical
T3 construct: human K-Ras (wildtype, aa 1-169); 6xHis tag + TEV cleavage site (N); made in house; host or cells: E. coli BL21(DE3) for K-Ras

[6] = target: T4, K-Ras(G13D) (Homo sapiens, UniProt P01116, G13D); assay: Covalent modification of recombinant K-Ras(G13D) by whole-protein mass spectrometry; assay type: binding; settings: 10 μM, 23° C., after 1 h
T4 construct: human K-Ras (G13D, aa 1-169); 6xHis tag + TEV cleavage site (N, cleaved yes); made in house; host or cells: E. coli BL21(DE3)
Method: as §1

[7] = target: T5, wild type K-Ras (Homo sapiens, UniProt P01116); assay: Covalent modification of recombinant wild-type K-Ras by whole-protein mass spectrometry; assay type: binding; settings: 10 μM, 23° C., after 1 h
T5 construct: human K-Ras (wildtype, aa 1-169); 6xHis tag + TEV cleavage site (N, cleaved yes); made in house; host or cells: E. coli BL21(DE3)

[8] = target: K-Ras(G12S) (Homo sapiens, UniProt P01116, G12S); assay: Covalent modification of recombinant K-Ras(G12S) by whole-protein mass spectrometry; assay type: binding; parameters: human K-Ras (G12S, aa 1-169); 6xHis tag + TEV cleavage site (N, cleaved yes); made in house; host or cells: E. coli BL21(DE3); settings: 10 μM compound, 23° C.
Procedure, shortened: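 Recombinant K-Ras diluted to 400 nM or 1 μM in 20 mM HEPES pH 7.5, 150 mM NaCl, 1 mM MgCl2 and incubated with compound added from 100× DMSO stock. Modification extent measured by electrospray whole-protein mass spectrometry; kinetics used 1:1 mixing with 400 nM protein and injection time stamps for elapsed time.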

[9] = target: T1, K-Ras G12D; assay: Stability of the adduct between K-Ras(G12D) and the compound
[10] = target: T6, Raf-RBD / K-Ras(G12D)·GppNHp (Homo sapiens, UniProt P01116, G12D); assay: Biolayer interferometry, Raf-RBD binding of the K-Ras(G12D)·GppNHp adduct; settings: compared to unmodified K-Ras(G12D)·GppNHp
T6 construct: human K-Ras (G12D, aa 1-169); 6xHis tag + TEV cleavage site (N); made in house; host or cells: E. coli BL21(DE3) for K-Ras

[11] = target: T7, K-Ras G12E (Homo sapiens, UniProt P01116, G12E); assay: Covalent modification of recombinant K-Ras(G12E) by whole-protein mass spectrometry; assay type: binding; settings: 10 μM, 23° C.
T7 construct: human K-Ras (G12E, aa 1-169); 6xHis tag + TEV cleavage site (N, cleaved yes); made in house; host or cells: E. coli BL21(DE3)
Method: as §1

[12] = target: T8, K-Ras(G12D)·GDP (Homo sapiens, UniProt P01116, G12D); assay: Detection of covalent modification of K-Ras(G12D) by tandem mass spectrometry; assay type: binding; settings: 1 mM or 10 mM, 23° C., 1 h
T8 construct: human K-Ras (G12D, aa 1-169); 6xHis tag + TEV cleavage site (N, cleaved yes); made in house; host or cells: E. coli BL21(DE3)
Method: K-Ras(G12D) protein (1 μM, 100 μL) in PBS 7.4 was treated with β-propiolactone (1 mM or 10 mM) at 23° C. for 1 h. The reaction buffer was exchanged into Digestion Buffer (20 mM Tris 8.0, 2 mM CaCl2)) using a Zeba 0.5-mL desalting column (7K MWCO, Thermo Scientific). 80 μL of the resulting protein solution was mixed with 2 μL 200 mM DTT. The mixture was heated at 56° C. for 30 min. After cooling to 23° C., 4 μL 200 mM iodoacetamide was added. After 15 min at 23° C., 2.1 μL 200 mM DTT was added. After an additional 5 min, 500 ng trypsin was added to the mixture, and the samples were incubated at 37° C. overnight. 5 μL 10% formic acid was added to stop the digestion (final formic acid concentration: 0.5% v/v). The tryptic peptides were enriched and desalted using OMIX C18 tips (Agilent) following the manufacturer's instructions. Peptides (0.5% of total) were resolved on an Easy-Spray nano-HPLC column (Thermo Fisher ES800A, 150 mm length, […], […]) over a 54-min gradient of 2-37% acetonitrile-water+0.1% formic acid and analyzed by a Q-Exactive hybrid quadrupole-orbitrap mass spectrometer (MS1 resolution 70,000, AGC target: 3e6, range: 350-1500 m/z; MS2 resolution 17,500, AGC target: 5e4, max injection time: 120 ms, Top 10, NCE: 25%, dynamic exclusion: 15 s). […]

| SMILES | growth of KRAS G12D cancer cell lines [1] | activity against GppNHp-bound K-Ras(G12D) [2] | time to full modification of K-Ras(G12D)·GDP [2] | interaction between Raf-RBD and K-Ras(G12D) [3] | ΔTm of K-Ras(G12D)·GDP on covalent modification ([4]; GDP state) | ΔTm of K-Ras(G12D)·GppNHp on covalent modification ([4]; GppNHp state) | interaction between Raf-RBD and wildtype K-Ras [5] | modification of K-Ras(G13D)·GDP [6] [%] | modification of K-Ras(wildtype)·GDP [7] | covalent reaction with K-Ras(G12S)·GDP [8] | stability of the K-Ras(G12D) adduct over pH [9] | stability of the K-Ras(G12D) adduct with DTT ([9]; 1 mM DTT, 23° C.) | binding of the K-Ras(G12D)·GppNHp adduct to Raf-RBD [10] | reactivity with K-Ras(G12E)·GDP [11] | alkylation of Asp12 in peptide LVVVGAD*GVGK [12] |
| --- | --- | --- | --- | --- | --- | --- | --- | --- | --- | --- | --- | --- | --- | --- | --- |
| C#Cc1cccc2cccc(-c3ncc4c(N5C[C@H]6CC[C@@H](C5)N6C(=O)C5CC(=O)O5)nc(OCC56CCCN5CCC6)nc4c3F)c12 (mixture of isomers) [Compound 1] | inhibited growth of KRAS^G12D cancer cell lines | also active against the GppNHp-bound K-Ras(G12D) | less than 15 minutes | inhibited the interaction between Raf-RBD and K-Ras(G12D) | +10.3 °C | +2.5 °C | not wildtype K-Ras | 6.5±0.3 | no detectable modification | did not react with K-Ras(G12S)·GDP | stable over a range of pH (5.0-8.5) | did not degrade in the presence of 1 mM DTT | substantially decreased binding to Raf-RBD | markedly reduced reactivity |  |
| O=C1CCO1 [β-propiolactone] |  |  |  |  |  |  |  |  |  |  |  |  |  |  | the mutant aspartate was covalently alkylated by a 2-carboxylethyl group |
